The source of these data is ChEMBL document CHEMBL1124752, “Cyclobut-A and cyclobut-G: broad-spectrum antiviral agents with potential utility for the therapy of AIDS” (J Med Chem, 1990).

The test system of assay [1] is Murid betaherpesvirus 1. Description: In vitro antiviral activity tested against MCMV Smith strain by plaque reduction assay in mouse embryo fibroblasts. Conditions: read-out: ED50 (the source's name). On the technique in general: In a plaque reduction assay, fewer plaques than in the control indicate reduced infectivity or spread.
The subject of assay [2] is Murid betaherpesvirus 1. Put plainly: Number of survivors per number of systemic MCMV infected mice treated with 33.4 mg/kg per day; 15/15. It is filed as functional.
Assay [3] concerns Murid betaherpesvirus 1. Description: Tested for mean day to death of nonsurvivors against systemic MCMV infection in mice at 1.9 mg/kg per day. The assay is classed as functional.
Assay [4] deals with Murid betaherpesvirus 1. Put plainly: Tested for the effective dose required to inhibit systemic MCMV in infected mice. The assay is classed as functional.
Assay [5] relates to Murid betaherpesvirus 1. Put plainly: Number of survivors per number of systemic MCMV infected mice treated with 11.2 mg/kg per day; 15/15. It is filed as functional.
Assay [6] relates to Human betaherpesvirus 5. Description: In vitro antiviral activity tested against HCMV, EC strain by plaque reduction assay in human foreskin fibroblasts. It is filed as functional.
Assay [7] has as its system Murid betaherpesvirus 1. Put plainly: In vitro antiviral activity tested against MCMV Smith strain by plaque reduction assay in mouse embryo fibroblasts. Particulars: read-out: ID50 (the source's name). The assay is classed as functional.
In assay [8] the test system is Human betaherpesvirus 5. Put plainly: In vitro antiviral activity tested against HCMV, LA strain by plaque reduction assay in human foreskin fibroblasts. It is filed as functional.
In assay [9] the test system is Human betaherpesvirus 5. Description: In vitro antiviral activity tested against HCMV, CH strain by plaque reduction assay in human foreskin fibroblasts. The assay is classed as functional.
Assay [10] has as its system Human betaherpesvirus 5. Put plainly: In vitro antiviral activity tested against HCMV, AD169 strain by plaque reduction assay in human foreskin fibroblasts. The assay is classed as functional.
Assay [11] concerns Murid betaherpesvirus 1. Description: Number of survivors per number of systemic MCMV infected mice treated with 3.8 mg/kg per day; 10/15. The assay is classed as functional.
The test system of assay [12] is Human betaherpesvirus 5. Put plainly: In vitro antiviral activity tested against HCMV, Davis strain by plaque reduction assay in human foreskin fibroblasts. It is filed as functional.
Assay [13] has as its system Human alphaherpesvirus 2. Description: Tested for mean day to death of nonsurvivors against HSV-2 encephalitis in mice at 31.2 mg/kg per day. The assay is classed as functional.
In assay [14] the test system is Human alphaherpesvirus 2. Put plainly: Tested for the effective dose required to inhibit HSV-2 encephalitis in infected mice. It is filed as functional.
The test system of assay [15] is Human alphaherpesvirus 2. Description: Number of survivors per number of HSV-2 infected mice treated with 31.2 mg/kg per day; 0/10. It is filed as functional.
Assay [16] concerns Human alphaherpesvirus 1. Put plainly: Tested for mean day to death of nonsurvivors against HSV-1 infection in mice at 12.5 mg/kg per day. It is filed as functional.
Assay [17] concerns Human alphaherpesvirus 2. Description: Number of survivors per number of HSV-2 infected mice treated with 7.8 mg/kg per day; 0/10. It is filed as functional.
Assay [18] deals with Human alphaherpesvirus 2. Description: Tested for mean day to death of nonsurvivors against HSV-2 encephalitis in mice at 7.8 mg/kg per day. It is filed as functional.
Assay [19] has as its system Human alphaherpesvirus 1. Put plainly: Tested for mean day to death of nonsurvivors against HSV-1 infection in mice at 3.1 mg/kg per day. The assay is classed as functional.
The test system of assay [20] is Human alphaherpesvirus 2. Put plainly: Tested for mean day to death of nonsurvivors against HSV-2 encephalitis in mice at 125 mg/kg per day. It is filed as functional.
Assay [21] relates to Human alphaherpesvirus 2. Put plainly: Number of survivors per number of HSV-2 infected mice treated with 125 mg/kg per day; 3/10. The assay is classed as functional.
Setting [22] is: read-out: ED50 (the source's name).
Where [23] appears, read: read-out: ID50 (the source's name).

≈ marks a conversion by molar mass, not a printed value. Some results are limits rather than exact numbers.

A word on the ED50: it is the midpoint of the dose-response relation. A low value points to greater potency. Consider `Nc1nc2c(ncn2COC(CO)CO)c(=O)[nH]1` [GANCICLOVIR], for which the EC50 in assay [1] turned out to be 1 µg/mL (≈ 3.92 µM); in [6] (setting [22]) it was 2.8 µg/mL (≈ 11 µM); in assay [8] (setting [22]), 2.4 µg/mL (≈ 9.4 µM); in [9] (setting [22]), 3.1 µg/mL (≈ 12.1 µM); in assay [10] (setting [22]) it was 2.7 µg/mL (≈ 10.6 µM); in [12] (setting [22]) it was 3.6 µg/mL (≈ 14.1 µM). In addition, the values for the Survivors / treated in assay [2], in assay [5] and in [11] were 15, 15 and 10, respectively. Also, the MDD in assay [3] was determined as 7.6. The compound also had an ED50 in assay [4] below 1.9 mg/kg/day. Besides, the IC50 in assay [6] (setting [23]), in [7], in assay [8] (setting [23]), in assay [9] (setting [23]), in assay [10] (setting [23]) and in assay [12] (setting [23]) was above 100 µg/mL in each case.
In the case of `Nc1ncnc2c1ncn2[C@@H]1O[C@H](CO)[C@@H](O)[C@@H]1O` [VIDARABINE], the MDD is reported as 9.3 in [13]; 13.5 in assay [16]; 7.9 in [18]; 6.9 in [19]; 11.1 in assay [20]. The ED50 in [14] is above 125 mg/kg/day. For the same compound, the Survivors / treated was 0 in assay [15], 0 in assay [17] and 3 in assay [21].
